Reference: PMC10698194 (Nature Communications, 2023)
Values joined by “and” are separate entries in the source; they are usually repeats but may differ in a detail not shown here. Identical values can stand only once.

Columns and labels:
[1] = biological target: mouse KOR, Gαi1 (Mus musculus, UniProt P33534); test: TRUPATH BRET G protein assay, Gαi1; type: cell-based; conditions: TRUPATH; read-out: Emax (%) Gαi1
[2] = biological target: T1, mouse KOR, Gαi2 (Mus musculus, UniProt P33534); test: TRUPATH BRET G protein assay, Gαi2; type: cell-based
T1 construct: expressed in transfected cells; host or cells: HEK293T (ATCC, CRL-3216), transient

[3] = biological target: mouse KOR, Gαi3 (Mus musculus, UniProt P33534); test: TRUPATH BRET G protein assay, Gαi3; type: cell-based; conditions: TRUPATH; read-out: Emax (%) Gαi3
[4] = biological target: mouse KOR, GαoA (Mus musculus, UniProt P33534); test: TRUPATH BRET G protein assay, GαoA; type: cell-based; conditions: TRUPATH; read-out: Emax (%) GαoA
[5] = biological target: mouse KOR, GαoB (Mus musculus, UniProt P33534); test: TRUPATH BRET G protein assay, GαoB; type: cell-based; conditions: TRUPATH; read-out: Emax (%) GαoB
[6] = biological target: mouse KOR, Gαz (Mus musculus, UniProt P33534); test: TRUPATH BRET G protein assay, Gαz; type: cell-based
[7] = biological target: mouse KOR, Gαgustducin (Mus musculus, UniProt P33534); test: TRUPATH BRET G protein assay, Gαgustducin; type: cell-based; conditions: read-out: Emax (%) Gαgustducin
[8] = biological target: human KOR (Homo sapiens, UniProt P41145); test: cell-based; set-up: expressed in transfected cells; host or cells: HEK293, transient
Chain of human KOR (P41145 whole entry): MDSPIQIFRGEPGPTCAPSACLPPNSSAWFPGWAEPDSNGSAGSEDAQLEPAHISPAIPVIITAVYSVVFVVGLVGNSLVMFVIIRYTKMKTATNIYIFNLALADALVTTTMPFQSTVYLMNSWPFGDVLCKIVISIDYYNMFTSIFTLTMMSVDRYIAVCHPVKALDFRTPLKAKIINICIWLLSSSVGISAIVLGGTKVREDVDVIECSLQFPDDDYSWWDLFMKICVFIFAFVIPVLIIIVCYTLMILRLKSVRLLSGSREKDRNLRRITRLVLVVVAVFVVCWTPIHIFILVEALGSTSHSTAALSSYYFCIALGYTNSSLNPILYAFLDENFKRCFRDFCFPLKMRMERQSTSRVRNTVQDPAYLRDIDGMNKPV

T1 sequence (P33534 whole entry): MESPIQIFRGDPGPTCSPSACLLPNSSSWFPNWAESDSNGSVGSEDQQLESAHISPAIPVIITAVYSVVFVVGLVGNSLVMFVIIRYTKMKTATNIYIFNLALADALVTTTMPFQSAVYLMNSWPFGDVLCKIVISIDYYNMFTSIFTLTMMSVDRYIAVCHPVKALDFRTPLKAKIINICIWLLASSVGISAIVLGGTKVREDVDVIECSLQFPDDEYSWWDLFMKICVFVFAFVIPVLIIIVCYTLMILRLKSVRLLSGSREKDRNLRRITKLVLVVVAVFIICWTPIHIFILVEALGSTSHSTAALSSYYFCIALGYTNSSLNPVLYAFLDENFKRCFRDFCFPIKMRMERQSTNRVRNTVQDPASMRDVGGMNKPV
Chain of mouse KOR, Gαz (P33534 whole entry): as above
Chain of mouse KOR, Gαz (P19086 2-355 partner): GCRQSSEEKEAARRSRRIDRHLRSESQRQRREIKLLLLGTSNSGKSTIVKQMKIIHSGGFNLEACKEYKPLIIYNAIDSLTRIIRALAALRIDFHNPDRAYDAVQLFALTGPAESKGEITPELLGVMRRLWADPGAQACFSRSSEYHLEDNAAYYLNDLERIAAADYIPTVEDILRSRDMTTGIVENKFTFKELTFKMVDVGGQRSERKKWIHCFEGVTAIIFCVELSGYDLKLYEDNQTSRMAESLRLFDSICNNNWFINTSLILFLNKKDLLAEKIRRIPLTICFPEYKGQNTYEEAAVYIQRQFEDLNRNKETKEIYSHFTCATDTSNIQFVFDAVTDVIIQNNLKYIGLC
Chain of mouse KOR, GαoB (P33534 whole entry): as the sequence (P33534 whole entry) above
Chain of mouse KOR, GαoB (P09471 2-354 partner): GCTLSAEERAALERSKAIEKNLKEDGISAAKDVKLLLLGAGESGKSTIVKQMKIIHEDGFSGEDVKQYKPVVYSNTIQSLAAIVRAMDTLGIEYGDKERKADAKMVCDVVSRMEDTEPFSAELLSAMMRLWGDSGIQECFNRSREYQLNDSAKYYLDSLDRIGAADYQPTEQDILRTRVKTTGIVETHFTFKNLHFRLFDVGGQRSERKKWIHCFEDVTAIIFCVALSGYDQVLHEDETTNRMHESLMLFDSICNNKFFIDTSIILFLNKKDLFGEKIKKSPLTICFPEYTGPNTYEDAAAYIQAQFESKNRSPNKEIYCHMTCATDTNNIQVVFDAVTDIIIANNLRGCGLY
Chain of mouse KOR, Gαi3 (P33534 whole entry): as the sequence (P33534 whole entry) above
Chain of mouse KOR, Gαi3 (P08754 2-354 partner): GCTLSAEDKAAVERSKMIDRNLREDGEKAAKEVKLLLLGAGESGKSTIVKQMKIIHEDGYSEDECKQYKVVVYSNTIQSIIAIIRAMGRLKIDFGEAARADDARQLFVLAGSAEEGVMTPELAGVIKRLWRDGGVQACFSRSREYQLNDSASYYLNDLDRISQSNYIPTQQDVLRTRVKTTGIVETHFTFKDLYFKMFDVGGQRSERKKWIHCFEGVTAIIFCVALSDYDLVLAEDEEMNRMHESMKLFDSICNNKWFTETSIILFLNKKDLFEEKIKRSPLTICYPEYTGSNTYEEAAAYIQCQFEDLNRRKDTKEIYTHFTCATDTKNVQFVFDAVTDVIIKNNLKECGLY
Chain of mouse KOR, GαoA (P33534 whole entry): as the sequence (P33534 whole entry) above
Chain of mouse KOR, GαoA (P09471 2-354 partner): as the sequence (P09471 2-354 partner) above
Chain of mouse KOR, Gαgustducin (P33534 whole entry): as the sequence (P33534 whole entry) above
Chain of mouse KOR, Gαgustducin (A8MTJ3 2-354 partner): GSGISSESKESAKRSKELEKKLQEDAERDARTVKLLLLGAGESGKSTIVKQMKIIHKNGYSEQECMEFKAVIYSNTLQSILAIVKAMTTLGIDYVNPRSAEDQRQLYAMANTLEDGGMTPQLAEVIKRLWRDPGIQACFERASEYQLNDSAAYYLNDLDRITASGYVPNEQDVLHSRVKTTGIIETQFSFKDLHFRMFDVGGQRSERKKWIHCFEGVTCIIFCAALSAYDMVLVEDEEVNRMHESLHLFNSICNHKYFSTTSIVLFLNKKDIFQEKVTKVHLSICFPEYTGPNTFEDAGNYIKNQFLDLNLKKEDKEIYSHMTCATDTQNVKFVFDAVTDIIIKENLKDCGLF
Chain of mouse KOR, Gαi1 (P33534 whole entry): as the sequence (P33534 whole entry) above
Chain of mouse KOR, Gαi1 (P63096 2-354 partner): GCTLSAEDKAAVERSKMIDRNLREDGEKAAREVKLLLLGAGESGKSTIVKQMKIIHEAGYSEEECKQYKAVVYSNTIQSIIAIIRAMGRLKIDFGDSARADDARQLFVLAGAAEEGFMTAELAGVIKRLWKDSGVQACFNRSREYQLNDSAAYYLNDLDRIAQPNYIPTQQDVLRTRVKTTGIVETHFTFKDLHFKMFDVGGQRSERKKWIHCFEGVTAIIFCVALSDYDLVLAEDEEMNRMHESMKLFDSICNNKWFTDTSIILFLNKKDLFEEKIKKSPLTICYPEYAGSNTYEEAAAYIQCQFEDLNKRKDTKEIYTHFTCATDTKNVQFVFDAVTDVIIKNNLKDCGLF

O=C(NC1C=CC2C3Cc4ccc(O)c5c4C2(CCN3CC2CC2)C1O5)c1cccc(I)c1 (stereo not drawn) [MP1104]
Emax [1]: 100 ± 4% | potency (log EC50) Gαi2 ([2]; Fig. 3i spider plot): -9.607 | Gαi2, normalized response (single replicate values) ([2]; Log [ligand] (M) -5): 68.8651 and 55.859 and 33.3938 and 78.3335 and 54.4028 and 51.6416 and 70.9702 and 67.6827 | Gαi2, normalized response (single replicate values) ([2]; Log [ligand] (M) -6): 66.5004 and 68.8651 and 52.3118 and 47.96 and 45.1988 and 59.9253 and 82.9355 and 80.6889 | Gαi2, normalized response (single replicate values) ([2]; Log [ligand] (M) -7): 70.0475 and 61.7708 and 39.3057 and 73.7314 and 51.6416 and 42.4375 and 78.3335 and 51.1294 | Gαi2, normalized response (single replicate values) ([2]; Log [ligand] (M) -8): 83.0537 and 70.0475 and 49.9471 and 81.0947 and 82.9355 and 89.3784 and 101.344 and 61.7708 | Gαi2, normalized response (single replicate values) ([2]; Log [ligand] (M) -9): 49.9471 and 40.488 and 71.2299 and 59.0049 and 80.1743 and 78.3335 and 46.1192 and 33.3938 | Gαi2, normalized response (single replicate values) ([2]; Log [ligand] (M) -10): 20.3876 and 60.5885 and 12.111 and 42.4375 and 46.1192 and 22.1885 and 25.8702 and 19.2052 | Gαi2, normalized response (single replicate values) ([2]; Log [ligand] (M) -11): -28.0899 and -9.172 and -25.7252 and 25.8702 and -9.105 and 27.711 and -46.8421 and 9.7462 | Gαi2, normalized response (single replicate values) ([2]; Log [ligand] (M) -12): 21.57 and -2.078 and 28.6643 and 3.78 and 2.86 and 9.303 (2×) and 6.199 | Emax ([2]; TRUPATH): 65 ± 6% | Gαi2 (Figure 3j) ([2]; source data of Figure 3j, U50,488 about 100): 64.9839 | Emax [3]: 85 ± 3% | Emax [4]: 87 ± 7% | Emax [5]: 101 ± 8% | highest potency ([6]; Gαz subtype): picomolar range | Emax ([6]; TRUPATH): 101 ± 3% | Emax [7]: 95 ± 5% | potency (log EC50) β-arrestin-2 [8]: -8.493 | β-arrestin-2 (Figure 3j) [8]: 91 | Emax ([8]; HEK293, read-out: Emax β-arrestin-1 recruitment): 91 ± 8%
